For one assay, the system named is CACNA1 A IRES pRCTF. Briefly: Preliminary screening, pRCTF R-Luc/F-Luc bicistronic reporter in HEK293 cells. The class given is cell-based, human.
A further assay deals with PC12 cells. Briefly: NGF-induced neurite outgrowth of transfected PC12 cells. The class given is cell-based, rat. Particulars: NGF treatment.

Entries after “also recorded” stand apart in the source; their conditions may differ.

Regarding `COc1ccc(C[C@H]2NC[C@H](O)[C@H]2OC(C)=O)cc1` [anisomycin], the “activity of CACNA1A IRES pRCTF” value with CACNA1 A IRES pRCTF is given as “has the potential to inhibit”.
As to ω-agatoxin, the α1AWT-induced neurite outgrowth result in the assay on PC12 cells (PC12 cells expressing full-length α1AWT-FLAG) was “could not be blocked; also recorded: did not block”. Besides, in the assay with PC12 cells (PC12 cells transfected with α1ACTWT-FLAG), the “α1ACTWT-induced (enhanced) neurite outgrowth” value was “no effect”.

These data come from patent US10017765B2, “Inhibitors of CACNA1A/ALPHA1A subunit internal ribosomal entry site (IRES) and methods of treating spinocerebellar ataxia type 6” (THE UNIVERSITY OF CHICAGO, priority 2013, dated 2018).
